Measured values reported in patent publication US20220280594A1, “APPLICATION OF POLYPEPTIDE OR DERIVATIVE THEREOF” (CHENGDU HUITAI BIOMEDICINE CO., LTD., priority 2019, published 2022).
Ends that are not written are not given here. PEG = not defined here

Key:
Type in all cases: cell-based
[1] = tested on: human liver cancer cells (HepG2); test: scratch assay, migration of HepG2 cells; conditions: HepG2, 10 μM, 48 hours; control group 71.01 ± 6.63
Procedure: (§1) In the scratch assay, the cell migration rate was negatively correlated with the inhibitory effect of the drug component on tumor cell migration ability. The cell migration inhibition experiment was described as follows: tumor cells were cultured in vitro, cells in logarithmic growth phase were collected and seeded evenly in a 24-well plate at a density of 1-2×10^5 cells/well; the cells were cultured in a cell incubator until a monolayer was formed; a scratch tool was used to make a “-” (straight) scratch on the monolayer of cells; the cells were washed 1-3 times with PBS, and a medium (with 2% fetal bovine serum) containing specific test components was added to the culture. Experimental grouping: PBS control group; polypeptide or derivative thereof treatment group (N1-N54), 10 μM. Three independent parallel wells were set up in each group, and the cells were cultured continuously in a cell incubator for 48 hours. […] At least 3 representative images for each well were taken. ImageJ software was used to count the migration distance of the cells, and the cell migration rate was calculated as: cell migration rate (%)=(width of original scratch−width of current scratch)/width of original scratch×100.
This example was a scratch assay to evaluate the inhibitory effect of the polypeptide or derivative thereof (N1-N54) on the migration ability of human liver cancer cells (HepG2). The experimental method was as described in Example 2.

[2] = tested on: human prostate cancer cells (22RV1); test: scratch assay, migration of 22RV1 cells; conditions: 22RV1, 10 μM, 48 hours; control group 25.41 ± 5.01
Procedure: as §1
This example was a scratch assay to evaluate the inhibitory effect of the polypeptide or derivative thereof (N1-N54) on the migration ability of human prostate cancer cells (22RV1). The experimental method was as described in Example 2.

[3] = tested on: human pharyngeal squamous-cell carcinoma cells (Fadu); test: scratch assay, migration of Fadu cells; conditions: 10 μM, 48 hours, control group 28.76 ± 4.08
Procedure: as §1
This example was a scratch assay to evaluate the inhibitory effect of the polypeptide or derivative thereof (N1-N54) on the migration ability of human pharyngeal squamous-cell carcinoma cells (Fadu). The experimental method was as described in Example 2.

[4] = tested on: human colon cancer cells (HCT-116); test: scratch assay, migration of HCT-116 cells; conditions: HCT-116, 10 μM, 48 hours; control group 47.78 ± 6.07
Procedure: as §1
This example was a scratch assay to evaluate the inhibitory effect of the polypeptide or derivative thereof (N1-N54) on the migration ability of human colon cancer cells (HCT-116). The experimental method was as described in Example 2.

[5] = tested on: human melanoma cells (A375); test: scratch assay, migration of A375 cells; conditions: A375, 10 μM, 48 hours; control group 44.03 ± 6.21
Procedure: as §1
This example was a scratch assay to evaluate the inhibitory effect of the polypeptide or derivative thereof (N1-N54) on the migration ability of human melanoma cells (A375). The experimental method was as described in Example 2.

[6] = tested on: human pancreatic cancer cells (PANC-1); test: scratch assay, migration of PANC-1 cells; conditions: PANC-1, 10 μM, 48 hours; control group 66.65 ± 3.37
Procedure: as §1
This example was a scratch assay to evaluate the inhibitory effect of the polypeptide or derivative thereof (N1-N54) on the migration ability of human pancreatic cancer cells (PANC-1). The experimental method was as described in Example 2.

[7] = tested on: human breast cancer cells (MCF-7); test: scratch assay, migration of MCF-7 cells; conditions: MCF-7, 10 μM, 48 hours; control group 30.97 ± 1.79
Procedure: as §1
This example was a scratch assay to evaluate the inhibitory effect of the polypeptide or derivative thereof (N1-N54) on the migration ability of human breast cancer cells (MCF-7). The experimental method was as described in Example 2.

[8] = tested on: human liver adenocarcinoma cells (SK-HEP-1); test: transwell invasion assay, SK-HEP-1 cells; conditions: SK-HEP-1 transwell invasion, 10 μM, 24 hours; control group 767 ± 91
Excerpt: (§2) The Transwell chamber system was used in the transwell cell invasion experiment. The chamber has an upper layer and a lower layer, which are separated by an artificial semipermeable membrane in the middle. The upper surface of the semipermeable membrane is coated with a layer of artificial matrigel to simulate extracellular matrix. Cells that have invaded through the matrigel and semi-permeable membrane will attach to the lower surface of the semi-permeable membrane. The invasion ability is evaluated by counting the number of cells on the lower surface of the semi-permeable membrane. The number of cells that have invaded is negatively correlated with the inhibitory effect of the drug on the invasion ability of the tumor cells. Transwell invasion assay was performed as follows: tumor cells were cultured in vitro, cells in logarithmic growth phase were collected, and cell suspension was prepared with fresh serum-free medium at a density of 2-3×10^5 cells/mL. Cells were inoculated, 100 μL/well cell suspension (serum-free medium) in the upper chamber and 600 μL/well complete culture medium in the lower chamber. After incubated in 37° C., 5% CO2 incubator for 4-5 hours, serum-free medium (100 μL/well) was added to the control group, and serum-free medium containing polypeptide or derivative thereof (N1-N54) was added to the upper chamber of the treatment group (100 μL/well), the final concentration of the peptide or derivative thereof in the upper chamber was 10 μM. The cells were incubated continuously for 24 hours, and then fixed with methanol and stained with crystal violet. Images were taken under a microscope and the number of invaded cells was counted with ImageJ.
This example was a transwell cell invasion experiment to evaluate the inhibitory effect of the polypeptide or derivative thereof (N1-N54) on the invasion ability of human liver adenocarcinoma cells (SK-HEP-1). The experimental method was as described in Example 4.

[9] = tested on: human breast cancer cells (MDA-MB-231); test: scratch assay, migration of MDA-MB-231 cells; conditions: MDA-MB-231, 10 μM, 48 hours; control group 36.19 ± 5.15
Procedure: as §1
This example was a scratch assay to evaluate the inhibitory effect of the polypeptide or derivative thereof (N1-N54) on the migration ability of human breast cancer cells (MDA-MB-231). The experimental method was as described in Example 2.

[10] = tested on: human pancreatic cancer cells (PANC-1); test: transwell invasion assay, PANC-1 cells; conditions: PANC-1 transwell invasion, 10 μM, 24 hours; control group 727 ± 68
Excerpt: as §2
This example was the transwell cell invasion experiment to evaluate the inhibitory effect of the polypeptide or derivative thereof (N1-N54) on the invasion ability of human pancreatic cancer cells (PANC-1). The experimental method was as described in Example 4.

N13: SEQ ID NO: 1 with deletion of positions 15-18 and positions 1-5 (LAKENVTQD)
Migration rate (%) (mean ± SD, P) [1]: 45.91 ± 4.70,** % | Migration rate (%) (mean ± SD, P) [2]: 9.77 ± 3.66,* % | Migration rate (%) (mean ± SD, P) [3]: 9.38 ± 2.46,*** % | Migration rate (%) (mean ± SD, P) [4]: 12.19 ± 3.22,*** % | Migration rate (%) (mean ± SD, P) [5]: 16.28 ± 4.19,** % | Migration rate (%) (mean ± SD, P) [6]: 18.28 ± 8.38,*** % | Migration rate (%) (mean ± SD, P) [7]: 13.79 ± 2.05,** % | Number of cells (mean ± SD, P), invaded cells [8]: 258 ± 32,**** | Migration rate (%) (mean ± SD, P) [9]: 7.45 ± 2.6,*** % | Number of cells (mean ± SD, P), invaded cells [10]: 161 ± 19,****

N17: SEQ ID NO: 1 with addition of two amino acids to the carboxyl terminal (YRVRFLAKENVTQDAEDNCT)
Migration rate (%) (mean ± SD, P) [1]: 43.42 ± 3.16,** % | Migration rate (%) (mean ± SD, P) [2]: 4.61 ± 1.64,** % | Migration rate (%) (mean ± SD, P) [3]: 8.78 ± 2.34,*** % | Migration rate (%) (mean ± SD, P) [4]: 23.09 ± 2.41,*** % | Migration rate (%) (mean ± SD, P) [5]: 14.35 ± 2.52,*** % | Migration rate (%) (mean ± SD, P) [6]: 15.47 ± 5.29,*** % | Migration rate (%) (mean ± SD, P) [7]: 11.47 ± 4.24,** % | Number of cells (mean ± SD, P), invaded cells [8]: 165 ± 28,**** | Migration rate (%) (mean ± SD, P) [9]: 12.04 ± 4.13,** % | Number of cells (mean ± SD, P), invaded cells [10]: 95 ± 6,****

N50: SEQ ID NO: 1 with N18R, addition of 2 amino acid at the carboxyl terminal, PEG modification at the amino terminal ({PEG}-YRVRFLAKENVTQDAEDRCT; reading uncertain)
Migration rate (%) (mean ± SD, P) [1]: 16.03 ± 4.37,*** % | Migration rate (%) (mean ± SD, P) [2]: 6.20 ± 3.31,** % | Migration rate (%) (mean ± SD, P) [3]: 5.44 ± 1.44,*** % | Migration rate (%) (mean ± SD, P) [4]: 17.04 ± 4.96,** % | Migration rate (%) (mean ± SD, P) [5]: 15.97 ± 2.33,** % | Migration rate (%) (mean ± SD, P) [6]: 14.92 ± 8.62,*** % | Migration rate (%) (mean ± SD, P) [7]: 6.83 ± 4.55,** % | Number of cells (mean ± SD, P), invaded cells [8]: 243 ± 46,**** | Migration rate (%) (mean ± SD, P) [9]: 14.46 ± 5.73,** % | Number of cells (mean ± SD, P), invaded cells [10]: 310 ± 30,***

N31: SEQ ID NO: 1 with deletion of positions 3, 4, 11 and 15-18 and PEG modification at the carboxyl terminal (YRFLAKENTQD-{PEG}; reading uncertain)
Migration rate (%) (mean ± SD, P) [1]: 13.64 ± 7.59,*** % | Migration rate (%) (mean ± SD, P) [2]: 12.40 ± 2.24,* % | Migration rate (%) (mean ± SD, P) [3]: 12.13 ± 5.10,** % | Migration rate (%) (mean ± SD, P) [4]: 7.39 ± 2.06,*** % | Migration rate (%) (mean ± SD, P) [5]: 12.5 ± 2.29,*** % | Migration rate (%) (mean ± SD, P) [6]: 13.64 ± 7.59,*** % | Migration rate (%) (mean ± SD, P) [7]: 9.27 ± 2.23,** % | Number of cells (mean ± SD, P), invaded cells [8]: 269 ± 17,**** | Migration rate (%) (mean ± SD, P) [9]: 18.7 ± 3.05,* % | Number of cells (mean ± SD, P), invaded cells [10]: 365 ± 57,***

N47: SEQ ID NO: 1 with N18R, deletion of positions 1-2, one amino acid added and PEG at the carboxyl terminal (VRFLAKENVTQDAEDRC-{PEG}; reading uncertain)
Migration rate (%) (mean ± SD, P) [1]: 54.67 ± 7.02,* % | Migration rate (%) (mean ± SD, P) [2]: 5.92 ± 2.53,** % | Migration rate (%) (mean ± SD, P) [3]: 10.27 ± 4.61,*** % | Migration rate (%) (mean ± SD, P) [4]: 18.92 ± 2.11,** % | Migration rate (%) (mean ± SD, P) [5]: 8.82 ± 2.49,*** % | Migration rate (%) (mean ± SD, P) [6]: 36.05 ± 5.62,** % | Migration rate (%) (mean ± SD, P) [7]: 18.41 ± 2.35,* % | Number of cells (mean ± SD, P), invaded cells [8]: 85 ± 16,**** | Migration rate (%) (mean ± SD, P) [9]: 21.82 ± 4.11,* % | Number of cells (mean ± SD, P), invaded cells [10]: 133 ± 29,****
